Where two headings read alike, the source gives them in different places.
Tests used:
RAW 264.7 cells [1] = test: Lipid profile (prostaglandins, 2-AG, AEA and related lipids) of RAW 264.7 cell extracts, UPLC-MS/MS; assay type: cell-based, mouse; conditions: 30 min
RAW 264.7 cells [2] = test: [3H]AEA hydrolysis by intact RAW 264.7 cells; assay type: cell-based, mouse; conditions: LPS + INF-γ-treated cells; 100 nM [3H]AEA, 60 min; URB597 1 μM, flurbiprofen and (R)-Flu-AM1 10 μM
mouse brain FAAH = biological target: T1, mouse brain FAAH (Mus musculus, UniProt O08914); test: FAAH assay, [3H]AEA hydrolysis in mouse brain homogenates; assay type: biochemical
T1 construct: Brains from male B6CBAF1/J mice, stored at -80°C, were thawed, weighed and homogenized in cold buffer; from tissue; host or cells: brain of male B6CBAF1/J mice (washed membrane pellet homogenate)
T1 sequence (O08914 1-579): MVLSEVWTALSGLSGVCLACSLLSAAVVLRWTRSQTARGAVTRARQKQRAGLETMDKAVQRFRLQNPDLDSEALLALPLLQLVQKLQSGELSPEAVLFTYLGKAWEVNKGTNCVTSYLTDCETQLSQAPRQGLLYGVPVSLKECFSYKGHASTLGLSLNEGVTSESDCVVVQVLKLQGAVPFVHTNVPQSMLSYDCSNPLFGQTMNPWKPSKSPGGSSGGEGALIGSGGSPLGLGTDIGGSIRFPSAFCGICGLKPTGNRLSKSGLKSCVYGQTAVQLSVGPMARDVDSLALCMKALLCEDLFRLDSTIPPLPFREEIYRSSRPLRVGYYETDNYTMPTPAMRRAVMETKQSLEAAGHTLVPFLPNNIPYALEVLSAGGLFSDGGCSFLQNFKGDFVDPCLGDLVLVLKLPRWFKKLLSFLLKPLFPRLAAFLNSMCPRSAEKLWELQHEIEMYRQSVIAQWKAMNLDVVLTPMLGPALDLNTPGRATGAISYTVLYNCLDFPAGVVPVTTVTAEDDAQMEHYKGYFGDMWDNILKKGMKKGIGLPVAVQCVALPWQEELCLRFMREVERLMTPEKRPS
Experimental: Brains from male B6CBAF1/J mice, stored at -80°C, were thawed, weighed and homogenized in cold buffer (20 mM HEPES, 1 mM MgCl2 pH 7.0). Homogenates were centrifuged (35,000 g at 4°C for 20 min) before the pellet was resuspended in cold homogenization buffer. Centrifugation and resuspension was repeated twice. The suspension was incubated at 37°C for 15 min to degrade any endogenous substrate able to interfere with the FAAH assay. After centrifugation (35,000 g at 4°C for 20 min), the pellet was resuspended in cold buffer (50 mM Tris-HCl, 1mM EDTA, 3 mM MgCl2, pH 7.4). The protein concentration was determined according to the Bradford assay after which the samples were frozen in aliquots at -80°C. Ethical permission for the animal experiments was obtained from the local animal research ethical committee (Umeå Ethical Committee for Animal Research, Umeå, Sweden). FAAH was assayed using the method of Boldrup et al., whereby homogenates (0.3 μg protein / assay) in assay buffer (10 mM Tris-HCl, 1mM EDTA, pH 7.4), test compounds and substrate ([^3H]AEA in 10 mM Tris-HCl, 1mM EDTA, pH 7.4 containing 10 mg/ml fatty acid-free bovine serum, assay concentration 0.5 μM unless otherwise stated) were incubated for 10 min at 37°C. Thereafter, 400 μL activated charcoal (80 μL activated charcoal + 320 μL 0.5 M HCl) was added and the samples were placed on ice and centrifuged at 2500 rpm for 10 min. Aliquots (200 μL) of the supernatant was analyzed for tritium content by liquid scintillation spectroscopy with quench correction.

[3] = LPS + IFNγ 24 h, URB597 1 μM, flurbiprofen 10 μM, (R)-Flu-AM1 10 μM, median (range), n = 5–6
[4] = Treatment None (unstimulated), URB597 1 μM, flurbiprofen 10 μM, (R)-Flu-AM1 10 μM, median (range), n = 5–6

SMILES: Cc1cccnc1NC(=O)[C@H](C)c1ccc(-c2ccccc2)c(F)c1 [(R)-Flu-AM1, (R)-2-(2-Fluorobiphenyl-4-yl)-N-(3-Methylpyridin-2-yl)Propanamide]
- Effect on basal and LPS + INF-γ-stimulated PGD2 and PGE2 production (RAW 264.7 cells [1]; 10 μM): almost complete inhibition
- Effect upon linoleic acid-derived oxylipins (RAW 264.7 cells [1]; 10 μM): No significant effects
- Effect on levels of 2-AG in the cell extracts (RAW 264.7 cells [1]; 10 μM, unstimulated and LPS + INF-γ-treated): not affected
- 2-AG level relative to vehicle None median (RAW 264.7 cells [1]; [3]): 0.81 (0.64–0.98)
- 9,10,13-TriHOME level relative to vehicle None median (RAW 264.7 cells [1]; [3]): 1.18 (0.90–1.49)
- 9,10-DiHOME level relative to vehicle None median (RAW 264.7 cells [1]; [3]): 0.82 (0.65–1.09)
- 9,12,13-TriHOME level relative to vehicle None median (RAW 264.7 cells [1]; [3]): 1.22 (0.79–1.60)
- 9-HODE level relative to vehicle None median (RAW 264.7 cells [1]; [3]): 1.06 (0.50–1.64)
- 11-HETE level relative to vehicle None median (RAW 264.7 cells [1]; [3]): 2.29 (0.92–7.87)
- 12(13)-EpOME level relative to vehicle None median (RAW 264.7 cells [1]; [3]): 1.02 (0.53–1.98)
- 12(S)-HEPE level relative to vehicle None median (RAW 264.7 cells [1]; [3]): 0.27 (0–0.74)
- 12,13-DiHOME level relative to vehicle None median (RAW 264.7 cells [1]; [3]): 0.93 (0.76–1.04)
- 12-HETE level relative to vehicle None median (RAW 264.7 cells [1]; [3]): 0.32 (0.10–1.05)
- 13-HODE level relative to vehicle None median (RAW 264.7 cells [1]; [3]): 1.21 (0.55–1.75)
- 13-oxo-ODE level relative to vehicle None median (RAW 264.7 cells [1]; [3]): 1.49 (0.31–2.85)
- 15-HETE level relative to vehicle None median (RAW 264.7 cells [1]; [3]): 1.33 (0.67–3.37)
- AEA level relative to vehicle None median (RAW 264.7 cells [1]; [3]): 1.01 (0.37–1.16)
- LEA level relative to vehicle None median (RAW 264.7 cells [1]; [3]): 1.13 (0.33–1.60)
- OEA level relative to vehicle None median (RAW 264.7 cells [1]; [3]): 1.03 (0.87–1.22)
- PEA level relative to vehicle None median (RAW 264.7 cells [1]; [3]): 0.91 (0.49–1.15)
- PGD2 level relative to vehicle None median (RAW 264.7 cells [1]; [3]): 3.14 (1.51–4.13)
- SEA level relative to vehicle None median (RAW 264.7 cells [1]; [3]): 0.86 (0.65–1.11)
- Effect on levels of AEA and related N-acylethanolamines in the cells (RAW 264.7 cells [1]; LPS + INF-γ-treated, ionomycin (5 μM) treated cells, URB597 1 μM, flurbiprofen and (R)-Flu-AM1 10 μM): did not affect
- 2-AG level relative to vehicle None median (RAW 264.7 cells [1]; [4]): 0.94 (0.62–1.52)
- 9,10,13-TriHOME level relative to vehicle None median (RAW 264.7 cells [1]; [4]): 1.04 (0.81–1.41)
- 9,10-DiHOME level relative to vehicle None median (RAW 264.7 cells [1]; [4]): 1.05 (0.64–1.66)
- 9,12,13-TriHOME level relative to vehicle None median (RAW 264.7 cells [1]; [4]): 1.08 (0.76–1.57)
- 9-HODE level relative to vehicle None median (RAW 264.7 cells [1]; [4]): 0.99 (0.66–2.11)
- 11-HETE level relative to vehicle None median (RAW 264.7 cells [1]; [4]): 0.55 (0.12–2.43)
- 12(13)-EpOME level relative to vehicle None median (RAW 264.7 cells [1]; [4]): 1.03 (0.51–5.45)
- 12(S)-HEPE level relative to vehicle None median (RAW 264.7 cells [1]; [4]): 0.90 (0.17–1.43)
- 12,13-DiHOME level relative to vehicle None median (RAW 264.7 cells [1]; [4]): 1.12 (0.73–1.53)
- 12-HETE level relative to vehicle None median (RAW 264.7 cells [1]; [4]): 0.94 (0.27–1.82)
- 13-HODE level relative to vehicle None median (RAW 264.7 cells [1]; [4]): 0.97 (0.71–2.66)
- 13-oxo-ODE level relative to vehicle None median (RAW 264.7 cells [1]; [4]): 1.97(0.59–3.00)
- 15-HETE level relative to vehicle None median (RAW 264.7 cells [1]; [4]): 1.37 (0–2.72)
- AEA level relative to vehicle None median (RAW 264.7 cells [1]; [4]): 0.65 (0.39–0.86)
- LEA level relative to vehicle None median (RAW 264.7 cells [1]; [4]): 1.07 (0.21–1.26)
- OEA level relative to vehicle None median (RAW 264.7 cells [1]; [4]): 1.01 (0.79–1.11)
- PEA level relative to vehicle None median (RAW 264.7 cells [1]; [4]): 0.89 (0.74–1.06)
- PGD2 level relative to vehicle None median (RAW 264.7 cells [1]; [4]): 0 (0–0.25)
- PGE2 level relative to vehicle None median (RAW 264.7 cells [1]; [4]): 0 (0–0.25)
- SEA level relative to vehicle None median (RAW 264.7 cells [1]; [4]): 0.90 (0.52–1.02)
- Effect on hydrolysis of exogenous [3H]AEA by intact cells (RAW 264.7 cells [2]): would not be expected, and this was found to be the case
- IC50 (mouse brain FAAH; 0.5 μM [3H]AEA, read-out: IC50 inhibition of [3H]AEA hydrolysis in mouse brain homogenates): 8.8 µM
- Ki (mouse brain FAAH; Dixon replot of mean kinetic data, 1–8 μM [3H]AEA, read-out: Ki FAAH (Dixon plot)): 19 µM
- Mode of FAAH inhibition (mouse brain FAAH; kinetic experiments, 1–8 μM [3H]AEA): competitive inhibitor
- Ki (mouse brain FAAH; kinetic experiments, 1–8 μM [3H]AEA, read-out: Ki FAAH (competitive model fit)): 20 ± 8 µM

From PMC4583449, “Characterisation of (R)-2-(2-Fluorobiphenyl-4-yl)-N-(3-Methylpyridin-2-yl)Propanamide as a Dual Fatty Acid Amide Hydrolase: Cyclooxygenase Inhibitor” (PLoS ONE, 2015)
